Key:
NIH 3T3 cells [1] = assay: Cell migration onto coated half of tissue culture dish; type: cell-based; conditions: right half of dish coated with 1 μg/cm^2 of each protein; cells seeded on uncoated half, 7 days
Protocol: (§1) Cell Culture. NIH 3T3 cells were cultured in DMEM supplemented with 10% calf serum, 1% sodium pyruvate, 1% L-glutamine, 1% penicillin/streptomycin, and maintained in a humidified 5% CO2/95% air incubator at 37° C. Wildtype and pik3R2^−/− MEF cell lines were maintained in DMEM supplemented with 15% FBS and 1% penicillin/streptomycin, and maintained in a humidified 5% CO2, 95% air incubator at 37° C.
(§2) Imaging. NIH 3T3 cells were maintained in complete media (described above) for all experiments. Imaging was done on a Nikon Diaphot 300 inverted microscope with a Hamamatsu Orca ER digital camera controlled by IP lab software (Scanalytics). Images were captured under 10× and 20× phase-contrast microscopy. The cells were under temperature and gas control throughout the duration of the experiments (5% CO2, 95% air, 37° C.). MEF cells were maintained in complete media for all experiments. Imaging was done on a Nikon Diaphot 300 inverted microscope with a Hamamatsu Orca ER digital camera controlled by IP lab, or Metamorph imaging software. Images were captured under 20× and 40× differential interference microscopy (DIC), or fluorescence microscopy. The cells were under temperature and gas control throughout the duration of live cell imaging experiments (5% CO2, 95% air, 37° C.). […]

NIH 3T3 cells [2] = assay: Cell spreading on coated tissue culture dishes (time-lapse microscopy); type: cell-based; conditions: surface coated with 1 μg/cm2; observed over 8 hours (3, 6, 8 hours post-plating)
Protocol: as §1, §2

## fibronectin [FN]
NIH 3T3 cells [1]
  cell migration onto coated surface: robust migration
NIH 3T3 cells [2]
  cell spreading on coated surface: spread efficiently

Source: patent US20080031912A1, “METHOD FOR CONTROLLING CELL MIGRATION ON A SURFACE” (THE REGENTS OF THE UNIVERSITY OF CALIFORNIA, priority 2006, published 2008)
